From PubChem BioAssay (NCI) come the findings set out here.

Values joined by “and” are separate entries in the source; they are usually repeats but may differ in a detail not shown here. Identical values can stand only once.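 Tested at 5 concentrations; 48 h exposure; 96-well plates; endpoints linearly interpolated, else capped at highest concentration. GI50: concentration for 50% inhibition of growth. The concentration for full growth arrest is given as TGI.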

Test systems include SK-MEL-2 melanoma; MALME-3M melanoma; SF-268 CNS; NCI/ADR-RES ovarian; KM12 colon; MDA-MB-435; LOX IMVI melanoma; SF-539 CNS; SK-MEL-5 melanoma; IGROV1 ovarian.
What all share (assay): NCI tumour cell line growth inhibition, 48 h

For `COc1cc2c3c(n(CCCO)c(=O)c2cc1OC)-c1cc2c(cc1C3=O)OCO2`, the GI50 with SK-MEL-2 melanoma is 31.9 µM; in the assay with MALME-3M melanoma, 21.6 µM; in the assay on SF-268 CNS it was 9.04 µM; with NCI/ADR-RES ovarian, 3.95 µM; in the assay on KM12 colon, 27.7 µM; in the assay on MDA-MB-435 it was 31.4 µM. Moreover, the results for the GI50 in the assay with LOX IMVI melanoma, with SK-MEL-5 melanoma and in the assay on IGROV1 ovarian were 2.89 µM, 11.3 µM and 17.4 µM, respectively. For the same molecule, the TGI was over 100 µM in the assay on SK-MEL-2 melanoma; over 100 µM in the assay on MALME-3M melanoma; over 100 µM in the assay with SF-268 CNS; over 53.4 µM in the assay on NCI/ADR-RES ovarian; over 100 µM with KM12 colon; over 100 µM in the assay on MDA-MB-435. Besides, the TGI with LOX IMVI melanoma is 22.9 µM; in the assay with SF-539 CNS it was 6.79 µM; with SK-MEL-5 melanoma it was over 52.9 µM; in the assay with IGROV1 ovarian, over 100 µM.
For `O=C(O)C1CCCN1Cc1c[nH]c2ccccc12` (centres undefined), the TGI with SK-MEL-2 melanoma, in the assay on MALME-3M melanoma, in the assay with SF-268 CNS, in the assay with NCI/ADR-RES ovarian, in the assay with KM12 colon and in the assay on MDA-MB-435 was over 100 µM throughout. Moreover, the TGI with LOX IMVI melanoma, in the assay on SF-539 CNS, in the assay with SK-MEL-5 melanoma and in the assay on IGROV1 ovarian was over 100 µM each time.
For the molecule `COc1ccc2c(CN3CCC(CO)CC3)cc3cc4c(cc3c2c1)OCO4`, the GI50 with SK-MEL-2 melanoma is 0.193 µM; with MALME-3M melanoma it was 0.199 µM; in the assay on SF-268 CNS, 0.176 µM; with NCI/ADR-RES ovarian, 0.255 µM; with KM12 colon it was 0.28 µM; with MDA-MB-435, 0.275 µM. Also, the GI50 with LOX IMVI melanoma is 0.144 µM; in the assay on SF-539 CNS it was 0.254 µM; with SK-MEL-5 melanoma, 0.172 µM; in the assay on IGROV1 ovarian it was 0.305 µM. Also, the TGI in the assay on SK-MEL-2 melanoma worked out at 0.636 µM; in the assay with MALME-3M melanoma, 0.799 µM; in the assay with SF-268 CNS, 2.47 µM; with NCI/ADR-RES ovarian it was 10.4 µM; in the assay with KM12 colon, 4.34 µM; in the assay on MDA-MB-435 it was 1.41 µM. The TGI in the assay on LOX IMVI melanoma came out at 0.49 µM; with SF-539 CNS, 1.64 µM; in the assay on SK-MEL-5 melanoma, 0.495 µM; in the assay on IGROV1 ovarian, 11.6 µM.
As to `COC(=O)/C=C1\SC(=Nc2ccc(C(F)(F)F)cc2)N(CCc2c[nH]c3ccccc23)C1=O`, the GI50 in the assay with SK-MEL-2 melanoma was 1.65 µM; in the assay on MALME-3M melanoma, 1.79 µM; in the assay on SF-268 CNS it was 1.78 µM; in the assay with NCI/ADR-RES ovarian it was 1.89 µM; in the assay with KM12 colon, 1.74 µM; with MDA-MB-435 it was 1.56 µM. Besides, the GI50 is 1.49 µM in the assay with LOX IMVI melanoma, 1.62 µM with SF-539 CNS, 1.69 µM in the assay on SK-MEL-5 melanoma and 1.82 µM with IGROV1 ovarian. Besides, the TGI in the assay on SK-MEL-2 melanoma worked out at 3.43 µM; with MALME-3M melanoma, 3.3 µM; in the assay on SF-268 CNS it was 3.67 µM; in the assay on NCI/ADR-RES ovarian, 4.31 µM; in the assay on KM12 colon, 3.62 µM; in the assay on MDA-MB-435, 3.03 µM. Further, the TGI amounted to 2.81 µM in the assay on LOX IMVI melanoma, 3.02 µM in the assay on SF-539 CNS, 3.06 µM with SK-MEL-5 melanoma and 3.59 µM in the assay on IGROV1 ovarian.
For `COc1ccc(-n2c(-c3ccc(NC(=O)CCCl)cc3)nnc2-c2cc(OC)c(OC)c(OC)c2)cc1`, the GI50 in the assay on SK-MEL-2 melanoma is 3.01 µM; in the assay on MALME-3M melanoma it was 4 µM; with SF-268 CNS, 4.09 µM; in the assay with NCI/ADR-RES ovarian, 4.55 µM; in the assay on KM12 colon it was 2.35 µM; with MDA-MB-435, 4.4 µM. Moreover, the GI50 is 4.28 µM with LOX IMVI melanoma, 3.04 µM in the assay with SF-539 CNS, 3.46 µM in the assay on SK-MEL-5 melanoma and 2.9 µM with IGROV1 ovarian. Besides, the TGI in the assay on SK-MEL-2 melanoma is 7.16 µM; in the assay with MALME-3M melanoma it was over 14.3 µM; in the assay on SF-268 CNS, over 14.3 µM; in the assay on NCI/ADR-RES ovarian it was over 14.3 µM; with KM12 colon it was 7.6 µM; in the assay on MDA-MB-435, over 14.3 µM. The TGI in the assay with LOX IMVI melanoma is over 14.3 µM; in the assay on SF-539 CNS it was 10.3 µM; with SK-MEL-5 melanoma, 10.3 µM; with IGROV1 ovarian it was over 14.3 µM.
For the molecule `c1ccc(Oc2c3ccccc3nc3ccccc23)cc1`, the GI50 in the assay with SK-MEL-2 melanoma is 3.95 µM; with MALME-3M melanoma, 2.15 µM; with SF-268 CNS, 5.28 µM; in the assay with NCI/ADR-RES ovarian, 7.32 µM; with KM12 colon it was 3.64 µM; in the assay with MDA-MB-435, 1.77 µM. For the same molecule, the GI50 in the assay on LOX IMVI melanoma is 1.73 µM; in the assay on SF-539 CNS, 2 µM; with SK-MEL-5 melanoma it was 3.5 µM; in the assay on IGROV1 ovarian, 4.31 µM. Further, the TGI in the assay on SK-MEL-2 melanoma came to 17.6 µM; with MALME-3M melanoma, 8.71 µM; with SF-268 CNS, 17.3 µM; with NCI/ADR-RES ovarian it was 27 µM; in the assay on KM12 colon, 11 µM; in the assay with MDA-MB-435, 6.16 µM. Also, the TGI with LOX IMVI melanoma is 11.8 µM; with SF-539 CNS it was 5.22 µM; in the assay with SK-MEL-5 melanoma, 11.7 µM; with IGROV1 ovarian it was 15.8 µM.
Consider `O=C1NC(=O)[C@@H](c2cn3c4c(cccc24)CCC3)[C@@H]1c1c[nH]c2ccccc12`, for which the GI50 in the assay on SK-MEL-2 melanoma is 0.37 µM and 0.57 µM; in the assay with MALME-3M melanoma it was 0.987 µM and 0.434 µM; in the assay on SF-268 CNS it was 1.32 µM and 0.911 µM; in the assay on NCI/ADR-RES ovarian, 0.327 µM and 0.369 µM; with KM12 colon it was 0.382 µM and 0.433 µM; in the assay on MDA-MB-435 it was 0.146 µM and 0.125 µM. For the same molecule, the GI50 in the assay on LOX IMVI melanoma was 0.601 µM and 0.67 µM; with SF-539 CNS it was 0.319 µM and 0.337 µM; in the assay with SK-MEL-5 melanoma, 0.266 µM and 0.289 µM; with IGROV1 ovarian, 0.592 µM and 0.833 µM. Further, the TGI with SK-MEL-2 melanoma is > 10 µM and 20.8 µM; with MALME-3M melanoma it was > 10 µM and 26.6 µM; in the assay on SF-268 CNS, > 10 µM and 17.5 µM; with NCI/ADR-RES ovarian, > 4.71 µM and 9.55 µM; with KM12 colon it was > 10 µM and 6.15 µM; in the assay on MDA-MB-435 it was 0.431 µM and 0.367 µM. Besides, the TGI is > 10 µM and 14.8 µM with LOX IMVI melanoma; 2.39 µM and 5.25 µM in the assay with SF-539 CNS; 1.36 µM and 3.07 µM in the assay with SK-MEL-5 melanoma; > 10 µM and 23.2 µM in the assay with IGROV1 ovarian.
`Cc1ccc2c(/C=C/C(=O)c3cc(CN4CCOCC4)c(O)c4nc(C)ccc34)cc(CN3CCOCC3)c(O)c2n1`: the GI50 in the assay with SK-MEL-2 melanoma is 0.623 µM; in the assay on MALME-3M melanoma it was 2 µM; in the assay with SF-268 CNS it was 0.81 µM; in the assay with NCI/ADR-RES ovarian it was 0.162 µM; in the assay with KM12 colon, 0.558 µM; with MDA-MB-435, 0.669 µM. Besides, the GI50 with LOX IMVI melanoma is 0.454 µM; with SF-539 CNS it was 0.459 µM; with SK-MEL-5 melanoma, 0.581 µM; in the assay with IGROV1 ovarian, 0.622 µM. In addition, the TGI was 13.1 µM with SK-MEL-2 melanoma; 10.6 µM with MALME-3M melanoma; 8.66 µM with SF-268 CNS; over 100 µM in the assay with NCI/ADR-RES ovarian; 2.24 µM in the assay with KM12 colon; 2.3 µM in the assay on MDA-MB-435. Also, the TGI with LOX IMVI melanoma is 1.79 µM; in the assay on SF-539 CNS it was 2.02 µM; with SK-MEL-5 melanoma, 2.32 µM; in the assay with IGROV1 ovarian it was 3.6 µM.
For the molecule `Cc1c(C(=O)CCl)c(=O)n(-c2ccccc2)n1C`, the GI50 was 3.99 µM in the assay with SK-MEL-2 melanoma; 1.31 µM in the assay with MALME-3M melanoma; 5.47 µM in the assay on SF-268 CNS; 5.53 µM with NCI/ADR-RES ovarian; 10.4 µM with KM12 colon; 2.57 µM in the assay with MDA-MB-435. The GI50 in the assay on LOX IMVI melanoma is 3.27 µM; in the assay on SF-539 CNS it was 7.19 µM; with SK-MEL-5 melanoma, 3.66 µM; with IGROV1 ovarian, 2.19 µM. Further, the TGI turned out to be 14.5 µM in the assay with SK-MEL-2 melanoma; 6.98 µM with MALME-3M melanoma; 19.7 µM with SF-268 CNS; 27.3 µM in the assay with NCI/ADR-RES ovarian; 22.6 µM with KM12 colon; 11.5 µM with MDA-MB-435. Further, the TGI in the assay with LOX IMVI melanoma was found to be 14.3 µM; in the assay on SF-539 CNS, 22.9 µM; in the assay on SK-MEL-5 melanoma it was 14.5 µM; in the assay on IGROV1 ovarian, 6.92 µM.
Consider `O=C1c2cccnc2-c2nc(-c3ccccn3)cc3c2c1nc1ccccc13`, for which the GI50 was 1.06 µM with SK-MEL-2 melanoma; 0.377 µM with MALME-3M melanoma; 0.449 µM in the assay on SF-268 CNS; 0.208 µM in the assay with NCI/ADR-RES ovarian; 0.426 µM in the assay with KM12 colon; 0.728 µM with MDA-MB-435. The GI50 with LOX IMVI melanoma is 0.287 µM; with SF-539 CNS, 0.0926 µM; in the assay with SK-MEL-5 melanoma, 0.265 µM; in the assay on IGROV1 ovarian, 0.099 µM. Further, the TGI was determined as 2.52 µM in the assay on SK-MEL-2 melanoma; 1.72 µM in the assay with MALME-3M melanoma; 2.5 µM with SF-268 CNS; 0.658 µM in the assay with NCI/ADR-RES ovarian; 3.17 µM in the assay with KM12 colon; 2.09 µM in the assay on MDA-MB-435. The TGI with LOX IMVI melanoma was found to be 1.52 µM; in the assay with SF-539 CNS it was 0.295 µM; in the assay on SK-MEL-5 melanoma, 1.65 µM; in the assay with IGROV1 ovarian, 0.305 µM.
As for `CS(=O)(=O)c1ccc(Oc2nccc(-c3c(-c4ccc(F)cc4)ncn3C3CCNCC3)n2)cc1`, the GI50 with SK-MEL-2 melanoma, in the assay with MALME-3M melanoma, in the assay with SF-268 CNS, with NCI/ADR-RES ovarian, with KM12 colon and in the assay on MDA-MB-435 was over 25 µM throughout. In addition, the GI50 in the assay on LOX IMVI melanoma, in the assay with SF-539 CNS, in the assay on SK-MEL-5 melanoma and in the assay with IGROV1 ovarian was over 25 µM in each case. The TGI in the assay with SK-MEL-2 melanoma, with MALME-3M melanoma, with SF-268 CNS, in the assay on NCI/ADR-RES ovarian, with KM12 colon and in the assay on MDA-MB-435 was over 25 µM in each case. The TGI in the assay on LOX IMVI melanoma, with SF-539 CNS, in the assay with SK-MEL-5 melanoma and in the assay on IGROV1 ovarian was over 25 µM throughout.
